Legend:
Type in all cases: cell-based
[1] = system: Human leukemia cell line K562; assay: MTT cell viability assay, K562; settings: K562, MTT, 72 h, read-out: IC50 antiproliferative activity K562
Protocol: (§1) Cell viability was measured using the 3-(4,5-dimethylthiazol-2-yl)-2,5-diphenyltetrazolium bromide (MTT) assay and was expressed as a ratio to the absorbance value at 570 nm of the control cells.

all eight cell lines = assay: Antiproliferative activity, panel of eight cancer cell lines (summary); settings: Homo sapiens; summary over the eight cancer cell lines of Table 2; read-out: IC50 values against all eight cell lines
Protocol: Cells (5 × 10^4) were seeded into 96-well plates and exposed to vehicle (PBS) or different concentrations of compounds for 72 h. Cell viability was measured using the 3-(4,5-dimethylthiazol-2-yl)-2,5-diphenyltetrazolium bromide (MTT) assay and was expressed as a ratio to the absorbance value at 570 nm of the control cells.
As DMC-HA was identified as a potent novel inhibitor for HDACs, its antiproliferative activities on a panel of cancer cell lines and normal cells were evaluated, including four glioma cell lines, and the results are shown in Table 2. Vorinostat and curcumin were also tested as positive controls. […].

[2] = system: Human glioblastoma cell line U87; assay: MTT cell viability assay, U87; settings: MTT, 72 h, read-out: IC50 antiproliferative activity U87
Protocol: Human GBM U87 cell line was purchased from the American Type Culture Collection (ATCC). Cells were cultured in Dulbecco’s modified Eagle’s medium (DMEM) supplemented with 10% fetal bovine serum (FBS) and maintained in a 37°C, 5% CO2 incubator. After cells were routinely passaged at 2- to 3-day intervals, experiments were carried out when the cells entered exponential growth phase.
as §1

[3] = system: Human glioma cell line LN229; assay: MTT cell viability assay, LN229; settings: LN-229, MTT, 72 h, read-out: IC50 antiproliferative activity LN229
Protocol: as §1

[4] = system: Human liver cancer cell line HepG2; assay: MTT cell viability assay, HepG2; settings: HepG2, MTT, 72 h, read-out: IC50 antiproliferative activity HepG2
Protocol: as §1

## COc1cc(/C=C/C(=O)CC(=O)/C=C/c2ccc(/C=C/C(=O)NO)cc2)ccc1O [DMC-HA]
[1]
  IC50: 1.95 ± 0.71 µM
All eight cell lines
  IC50: < 5.3 µM
[2]
  IC50: 2.78 ± 0.81 µM
[3]
  IC50: 3.38 ± 0.29 µM
[4]
  IC50: 4.28 ± 0.52 µM

Reference: publication PMC8602566 (Frontiers in Oncology, 2021)
